One assay addresses T1, PI3 Kbeta (PI3 Kb) (Homo sapiens, UniProt P42338).
T1 construct: endogenous in cells; host or cells: cell lysate
As to the kind of experiment: kinobeads assay, PI3Kbeta. Type of assay: binding. The method, then:
(§1) The kinobeads assay was performed as a competitive binding assay in which test compounds were added directly into a cell lysate. Test compounds (at various concentrations) and the affinity matrix (beads with immobilized phenylmorpholin-chromen ligand) were added to cell lysate aliquots and allowed to bind to the proteins contained in the lysate sample. After the incubation time the beads with captured proteins were separated from the lysate. Bound proteins were then eluted and the presence of kinases was detected and quantified using a multiplexed immunodetection format. Dose response curves for individual kinases were generated and IC50 values calculated.
(§2) The effect of the compounds on the kinases PI3Kalpha (PI3Ka), PI3 Kbeta (PI3 Kb) and PI3 Kgamma (PI3 Kg) were tested in the kinobeads assay as described (WO-A 2009/098021).

Another assay concerns the target T2, PI3 Kgamma (PI3 Kg) (Homo sapiens, UniProt P48736).
T2 construct: endogenous in cells; host or cells: cell lysate
As to the kind of experiment: kinobeads assay, PI3Kgamma. The class given is binding. As to the method: as §1, §2

Another assay has as its target T3, mTOR (Homo sapiens, UniProt P42345).
T3 construct: endogenous in cells; host or cells: Jurkat, clone E6-1 (ATCC TIB-152) cell lysate
Briefly: mTOR kinobeads assay (competitive binding in Jurkat cell lysate, immunodetection). The gist of the method:
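IC50 derived from dose-response curves of mTOR captured on immobilized phenylmorpholin-chromen beads, detected by antibody dot blot with infrared fluorescence.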

Assay [1] has as its target T4, DNA-dependent protein kinase (DNA-PK) (Homo sapiens, UniProt P78527).
T4 construct: endogenous in cells; host or cells: Jurkat, clone E6-1 (ATCC TIB-152) cell lysate
As to the kind of experiment: kinobeads assay, DNA-PK. The class given is binding. A digest of the protocol: (§3)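 Competitive binding in Jurkat cell lysate (5 mg/ml total protein): test compounds at various concentrations competed with beads bearing immobilized phenylmorpholin-chromen ligand. Bead-bound kinases were eluted and quantified by antibody dot blot with infrared detection; IC50 values came from dose-response curves.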

Another assay addresses T5, PI3K delta (PI3 Kd) (Homo sapiens, UniProt O00329).
T5 construct: endogenous in cells; host or cells: Jurkat, clone E6-1 (ATCC TIB-152) cell lysate
As to the kind of experiment: kinobeads assay, PI3K delta. Type of assay: binding. The gist of the method:
as §3

The next assay deals with T6, PI3Kalpha (PI3Ka) (Homo sapiens, UniProt P42336).
T6 construct: endogenous in cells; host or cells: cell lysate
T6 sequence (P42336 whole entry): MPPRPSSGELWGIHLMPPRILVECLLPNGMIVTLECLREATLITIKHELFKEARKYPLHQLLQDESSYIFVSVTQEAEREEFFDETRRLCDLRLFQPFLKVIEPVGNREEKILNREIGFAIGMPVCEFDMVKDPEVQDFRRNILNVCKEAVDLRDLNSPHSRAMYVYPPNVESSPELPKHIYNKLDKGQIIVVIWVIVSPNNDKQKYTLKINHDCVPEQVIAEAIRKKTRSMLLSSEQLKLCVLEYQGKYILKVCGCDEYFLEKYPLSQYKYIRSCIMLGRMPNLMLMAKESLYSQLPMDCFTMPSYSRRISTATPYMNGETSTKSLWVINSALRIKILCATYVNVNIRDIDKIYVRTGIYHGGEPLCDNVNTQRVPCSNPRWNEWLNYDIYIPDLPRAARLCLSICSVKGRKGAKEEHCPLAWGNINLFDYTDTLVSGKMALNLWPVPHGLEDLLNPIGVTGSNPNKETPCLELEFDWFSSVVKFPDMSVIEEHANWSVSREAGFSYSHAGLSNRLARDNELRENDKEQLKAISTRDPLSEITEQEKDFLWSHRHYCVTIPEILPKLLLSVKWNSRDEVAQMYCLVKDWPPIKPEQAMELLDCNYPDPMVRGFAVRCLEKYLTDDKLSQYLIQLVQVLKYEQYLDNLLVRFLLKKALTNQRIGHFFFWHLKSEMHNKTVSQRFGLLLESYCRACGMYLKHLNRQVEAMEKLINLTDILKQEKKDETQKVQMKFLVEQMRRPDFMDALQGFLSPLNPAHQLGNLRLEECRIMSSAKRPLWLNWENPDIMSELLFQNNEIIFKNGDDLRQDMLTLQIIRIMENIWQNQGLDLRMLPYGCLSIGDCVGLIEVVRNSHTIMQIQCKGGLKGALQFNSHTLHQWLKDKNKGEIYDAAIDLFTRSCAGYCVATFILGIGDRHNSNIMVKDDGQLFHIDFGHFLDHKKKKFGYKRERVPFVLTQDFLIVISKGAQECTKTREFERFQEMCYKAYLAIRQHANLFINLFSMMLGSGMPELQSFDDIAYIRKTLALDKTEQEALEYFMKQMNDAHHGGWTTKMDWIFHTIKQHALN
T6 sequence (P27986 whole entry partner): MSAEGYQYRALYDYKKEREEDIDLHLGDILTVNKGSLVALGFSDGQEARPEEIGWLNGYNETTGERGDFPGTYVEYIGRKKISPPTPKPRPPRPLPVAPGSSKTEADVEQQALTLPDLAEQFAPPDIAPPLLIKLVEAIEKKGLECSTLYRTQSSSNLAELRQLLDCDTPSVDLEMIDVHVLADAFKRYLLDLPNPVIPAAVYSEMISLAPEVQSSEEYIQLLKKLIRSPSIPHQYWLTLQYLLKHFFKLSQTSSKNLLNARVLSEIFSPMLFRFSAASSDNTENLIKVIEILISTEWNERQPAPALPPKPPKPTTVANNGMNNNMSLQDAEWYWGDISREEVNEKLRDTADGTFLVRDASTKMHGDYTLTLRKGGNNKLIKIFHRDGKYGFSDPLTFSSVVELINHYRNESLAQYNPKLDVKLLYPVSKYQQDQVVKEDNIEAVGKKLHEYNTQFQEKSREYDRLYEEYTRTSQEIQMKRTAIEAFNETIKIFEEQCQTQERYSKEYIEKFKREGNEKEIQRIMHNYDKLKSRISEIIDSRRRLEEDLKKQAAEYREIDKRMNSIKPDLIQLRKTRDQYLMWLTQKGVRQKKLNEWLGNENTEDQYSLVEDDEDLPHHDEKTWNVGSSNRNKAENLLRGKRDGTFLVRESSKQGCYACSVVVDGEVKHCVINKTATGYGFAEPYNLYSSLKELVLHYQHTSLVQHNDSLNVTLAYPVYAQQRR
Briefly: kinobeads assay, PI3Kalpha. The class given is binding. To be noted: for IC50 / Inhibition values (IC50) PI3Ka: kinobeads assay, Table 6; for IC50: read-out: Inhibition values (IC50) PI3Ka; for PI3Ka: Further Kinobeads Data. As to the method: as §1, §2

Setting [2] is: kinobeads assay, Table 6, read-out: Inhibition values (IC50) PI3Kb.
Where [3] appears, read: kinobeads assay, Table 6, read-out: Inhibition values (IC50) PI3Kg.
Setting [4] is: kinobeads assay, Table 6, read-out: Inhibition values (IC50) mTOR.
Where [5] appears, read: kinobeads assay, Table 6, read-out: Inhibition values (IC50) DNAPK.
Where [6] appears, read: kinobeads assay, Table 6, read-out: Inhibition values (IC50) PI3Kd.
Setting [7] is: Further Kinobeads Data, read-out: PI3Kb.
Setting [8] is: Further Kinobeads Data, read-out: PI3Kg.
Setting [9] is: Further Kinobeads Data, read-out: mTor.
Setting [10] is: Further Kinobeads Data, read-out: DNAPK.
Setting [11] is: Further Kinobeads Data, read-out: PI3Kd.

Molecules are shown by their SMILES. Where two headings read alike, the source gives them in different places.

T5 sequence (O00329 whole entry): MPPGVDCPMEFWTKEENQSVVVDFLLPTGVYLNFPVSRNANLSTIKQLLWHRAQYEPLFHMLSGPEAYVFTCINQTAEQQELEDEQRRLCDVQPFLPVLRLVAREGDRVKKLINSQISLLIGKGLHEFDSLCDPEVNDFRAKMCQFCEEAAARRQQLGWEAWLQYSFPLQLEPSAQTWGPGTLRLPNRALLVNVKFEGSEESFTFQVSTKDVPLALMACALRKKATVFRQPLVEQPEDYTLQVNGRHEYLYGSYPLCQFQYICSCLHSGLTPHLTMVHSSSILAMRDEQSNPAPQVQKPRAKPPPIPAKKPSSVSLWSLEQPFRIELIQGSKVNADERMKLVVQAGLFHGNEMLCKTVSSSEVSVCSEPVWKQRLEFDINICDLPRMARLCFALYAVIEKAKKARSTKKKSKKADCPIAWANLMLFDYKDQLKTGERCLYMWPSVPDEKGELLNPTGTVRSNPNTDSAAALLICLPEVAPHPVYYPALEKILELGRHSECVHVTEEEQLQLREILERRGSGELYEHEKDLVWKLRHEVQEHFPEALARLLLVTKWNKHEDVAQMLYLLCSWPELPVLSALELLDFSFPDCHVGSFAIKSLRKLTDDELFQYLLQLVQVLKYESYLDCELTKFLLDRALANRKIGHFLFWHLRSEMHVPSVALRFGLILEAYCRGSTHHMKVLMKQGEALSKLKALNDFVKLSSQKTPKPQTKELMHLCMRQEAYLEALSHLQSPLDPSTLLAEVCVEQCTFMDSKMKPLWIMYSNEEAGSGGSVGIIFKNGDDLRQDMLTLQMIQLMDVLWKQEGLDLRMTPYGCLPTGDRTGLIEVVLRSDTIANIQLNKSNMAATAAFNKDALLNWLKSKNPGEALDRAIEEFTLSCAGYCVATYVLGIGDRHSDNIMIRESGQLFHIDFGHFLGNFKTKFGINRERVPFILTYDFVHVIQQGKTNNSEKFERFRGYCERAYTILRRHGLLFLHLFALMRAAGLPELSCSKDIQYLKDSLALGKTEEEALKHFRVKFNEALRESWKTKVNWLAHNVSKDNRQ
T5 sequence (P27986 whole entry partner): as the sequence (P27986 whole entry partner) above
T2 sequence (P48736 whole entry): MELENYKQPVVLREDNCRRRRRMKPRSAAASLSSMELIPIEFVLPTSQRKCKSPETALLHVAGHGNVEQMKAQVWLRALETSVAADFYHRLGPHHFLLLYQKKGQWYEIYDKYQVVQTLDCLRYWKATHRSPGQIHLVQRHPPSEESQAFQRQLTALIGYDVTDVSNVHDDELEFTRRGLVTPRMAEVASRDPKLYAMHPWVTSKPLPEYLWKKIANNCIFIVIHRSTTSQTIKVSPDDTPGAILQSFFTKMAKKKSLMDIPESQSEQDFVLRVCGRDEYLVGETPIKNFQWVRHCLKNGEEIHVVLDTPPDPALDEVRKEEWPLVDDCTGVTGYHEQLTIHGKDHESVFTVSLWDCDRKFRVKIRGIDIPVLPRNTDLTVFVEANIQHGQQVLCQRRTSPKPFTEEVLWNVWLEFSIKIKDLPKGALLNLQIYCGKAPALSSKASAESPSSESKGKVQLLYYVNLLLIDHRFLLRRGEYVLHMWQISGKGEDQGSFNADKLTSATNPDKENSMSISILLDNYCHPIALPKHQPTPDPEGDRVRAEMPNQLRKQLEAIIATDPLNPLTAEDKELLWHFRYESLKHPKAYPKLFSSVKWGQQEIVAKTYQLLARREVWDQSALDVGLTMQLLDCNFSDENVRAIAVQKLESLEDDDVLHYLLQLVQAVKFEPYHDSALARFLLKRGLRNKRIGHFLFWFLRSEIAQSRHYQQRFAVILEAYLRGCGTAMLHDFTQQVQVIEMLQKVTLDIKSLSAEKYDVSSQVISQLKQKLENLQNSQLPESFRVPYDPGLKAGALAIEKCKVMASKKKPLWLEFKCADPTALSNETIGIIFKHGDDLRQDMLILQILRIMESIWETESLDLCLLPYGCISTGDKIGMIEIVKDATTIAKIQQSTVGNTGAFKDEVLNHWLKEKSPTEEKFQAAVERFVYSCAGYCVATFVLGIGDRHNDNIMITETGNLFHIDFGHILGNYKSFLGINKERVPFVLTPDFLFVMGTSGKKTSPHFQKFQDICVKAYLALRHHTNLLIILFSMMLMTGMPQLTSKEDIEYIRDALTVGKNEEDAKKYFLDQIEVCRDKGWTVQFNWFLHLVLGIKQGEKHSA
T1 sequence (P42338 whole entry): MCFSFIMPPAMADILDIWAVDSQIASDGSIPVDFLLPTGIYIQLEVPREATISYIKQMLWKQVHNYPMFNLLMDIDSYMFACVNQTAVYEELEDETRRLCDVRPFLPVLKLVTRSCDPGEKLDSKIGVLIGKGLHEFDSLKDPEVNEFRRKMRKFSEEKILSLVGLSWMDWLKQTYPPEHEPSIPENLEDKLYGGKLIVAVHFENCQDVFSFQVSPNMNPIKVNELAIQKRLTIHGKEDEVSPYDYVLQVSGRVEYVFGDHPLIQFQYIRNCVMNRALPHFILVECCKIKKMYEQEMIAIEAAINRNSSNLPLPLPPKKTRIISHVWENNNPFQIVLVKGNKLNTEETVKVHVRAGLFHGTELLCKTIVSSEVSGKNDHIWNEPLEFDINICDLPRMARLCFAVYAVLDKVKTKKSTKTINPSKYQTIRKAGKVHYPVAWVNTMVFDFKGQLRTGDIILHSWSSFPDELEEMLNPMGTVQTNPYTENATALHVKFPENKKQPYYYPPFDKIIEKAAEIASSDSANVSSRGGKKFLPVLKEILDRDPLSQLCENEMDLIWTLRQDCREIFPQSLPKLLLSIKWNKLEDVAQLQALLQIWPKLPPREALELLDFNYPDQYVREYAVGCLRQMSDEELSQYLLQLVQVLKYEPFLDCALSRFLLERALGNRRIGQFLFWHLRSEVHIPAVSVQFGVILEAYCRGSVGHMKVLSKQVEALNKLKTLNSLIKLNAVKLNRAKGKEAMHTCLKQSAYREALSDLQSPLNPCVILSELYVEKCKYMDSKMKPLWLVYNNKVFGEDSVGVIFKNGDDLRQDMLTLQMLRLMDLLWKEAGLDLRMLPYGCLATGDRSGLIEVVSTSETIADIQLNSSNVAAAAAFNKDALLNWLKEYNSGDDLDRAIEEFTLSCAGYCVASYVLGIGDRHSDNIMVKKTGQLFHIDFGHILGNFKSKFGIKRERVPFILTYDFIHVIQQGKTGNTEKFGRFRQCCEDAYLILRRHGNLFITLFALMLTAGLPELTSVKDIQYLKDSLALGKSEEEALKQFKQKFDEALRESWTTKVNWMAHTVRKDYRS
T1 sequence (P27986 whole entry partner): as the sequence (P27986 whole entry partner) above

For the molecule `CCOC(=O)N1Cc2nc(-c3ccc(NC(=O)NCCNC(C)=O)cc3)nc(N3CCOC[C@@H]3C)c2C1` [Example 124, (S)-ethyl 2-(4-(3-(2-acetamidoethyl)ureido)phenyl)-4-(3-methylmorpholino)-5H-pyrrolo[3,4-d]pyrimidine-6(7H)-carboxylate], the IC50 is above 10 µM on PI3 Kbeta (PI3 Kb) (setting [2]); above 10 µM on PI3 Kgamma (PI3 Kg) (setting [3]); 0.1 to 1 µM at mTOR (setting [4]); above 10 µM in assay [1] (setting [5]); 1 to 10 µM at PI3K delta (PI3 Kd) (setting [6]); 1 to 10 µM on PI3Kalpha (PI3Ka).

`CCOC(=O)N1Cc2nc(-c3ccc(NC(=O)NCC(=O)NC)cc3)nc(N3CCOC[C@@H]3C)c2C1` [Example 125, (S)-ethyl 2-(4-(3-(2-(methylamino)-2-oxoethyl)ureido)phenyl)-4-(3-methylmorpholino)-5H-pyrrolo[3,4-d]pyrimidine-6(7H)-carboxylate]: the IC50 on PI3 Kbeta (PI3 Kb) (setting [2]) is 1 to 10 µM; at PI3 Kgamma (PI3 Kg) (setting [3]) it was 1 to 10 µM; at mTOR (setting [4]), 0.1 to 1 µM; in assay [1] (setting [5]), above 10 µM; at PI3K delta (PI3 Kd) (setting [6]) it was 0.1 to 1 µM. For the same molecule, the “Inhibition values (IC50) PI3Ka” value on PI3Kalpha (PI3Ka) is listed as “B (B >0.1 μM < 1 μM)”.

`CCNC(=O)Nc1ccc(-c2nc3c(c(N4CCOC[C@@H]4C)n2)CN(C(=O)C2CCNCC2)C3)cc1F` [Example 126, (S)-1-ethyl-3-(2-fluoro-4-(4-(3-methylmorpholino)-6-(piperidine-4-carbonyl)-6,7-dihydro-5H-pyrrolo[3,4-d]pyrimidin-2-yl)phenyl)urea]: the IC50 at PI3 Kbeta (PI3 Kb) (setting [2]) was 1 to 10 µM; at PI3 Kgamma (PI3 Kg) (setting [3]), above 10 µM; at mTOR (setting [4]), 0.1 to 1 µM; in assay [1] (setting [5]), above 10 µM; on PI3K delta (PI3 Kd) (setting [6]), above 10 µM. Besides, at PI3Kalpha (PI3Ka), the “Inhibition values (IC50) PI3Ka” value is “D (D >10 μM)”.

`C[C@H]1COCCN1c1nc(-c2ccc(NC(=O)NC3CC3)cc2)nc2c1CN(CC1CCNCC1)C2` [Example 130, (S)-1-cyclopropyl-3-(4-(4-(3-methylmorpholino)-6-(piperidin-4-ylmethyl)-6,7-dihydro-5H-pyrrolo[3,4-d]pyrimidin-2-yl)phenyl)urea]: the IC50 on PI3 Kbeta (PI3 Kb) (setting [2]) was 1 to 10 µM; at PI3 Kgamma (PI3 Kg) (setting [3]), above 10 µM; on mTOR (setting [4]), below 0.1 µM; in assay [1] (setting [5]), above 10 µM; on PI3K delta (PI3 Kd) (setting [6]), 1 to 10 µM; at PI3Kalpha (PI3Ka), 1 to 10 µM.

`C[C@H]1COCCN1c1nc(-c2ccc(NC(=O)NC3CC3)cc2)nc2c1CN(C(=O)CCN1CCCC1=O)C2` [Example 132, (S)-1-cyclopropyl-3-(4-(4-(3-methylmorpholino)-6-(3-(2-oxopyrrolidin-1-yl)propanoyl)-6,7-dihydro-5H-pyrrolo[3,4-d]pyrimidin-2-yl)phenyl)urea]: the IC50 is 1 to 10 µM on PI3 Kbeta (PI3 Kb) (setting [2]); above 10 µM on PI3 Kgamma (PI3 Kg) (setting [3]); below 0.1 µM at mTOR (setting [4]); above 10 µM in assay [1] (setting [5]); 1 to 10 µM on PI3K delta (PI3 Kd) (setting [6]); 1 to 10 µM at PI3Kalpha (PI3Ka).

Consider `CC(=O)NCCCC(=O)N1Cc2nc(-c3ccc(NC(=O)NC4CC4)cc3)nc(N3CCOC[C@@H]3C)c2C1` [Example 133, (S)—N-(4-(2-(4-(3-cyclopropylureido)phenyl)-4-(3-methylmorpholino)-5H-pyrrolo[3,4-d]pyrimidin-6(7H)-yl)-4-oxobutyl)acetamide], for which the IC50 was 1 to 10 µM on PI3 Kbeta (PI3 Kb) (setting [2]); above 10 µM on PI3 Kgamma (PI3 Kg) (setting [3]); below 0.1 µM on mTOR (setting [4]); above 10 µM in assay [1] (setting [5]); 1 to 10 µM at PI3K delta (PI3 Kd) (setting [6]); 1 to 10 µM at PI3Kalpha (PI3Ka).

Take `C[C@H]1COCCN1c1nc(-c2ccc(NC(=O)NC3CC3)cc2)nc2c1CN(CCCC(=O)O)C2` [Example 134, (S)-4-(2-(4-(3-cyclopropylureido)phenyl)-4-(3-methylmorpholino)-5H-pyrrolo[3,4-d]pyrimidin-6(7H)-yl)butanoic acid]: the IC50 was above 10 µM at PI3 Kbeta (PI3 Kb) (setting [2]); above 10 µM at PI3 Kgamma (PI3 Kg) (setting [3]); below 0.1 µM on mTOR (setting [4]); above 10 µM in assay [1] (setting [5]); above 10 µM on PI3K delta (PI3 Kd) (setting [6]); 1 to 10 µM on PI3Kalpha (PI3Ka).

As for `CC(=O)N(C)CCC(=O)N1Cc2nc(-c3ccc(NC(=O)NC4CC4)cc3)nc(N3CCOC[C@@H]3C)c2C1` [Example 135, (S)—N-(3-(2-(4-(3-cyclopropylureido)phenyl)-4-(3-methylmorpholino)-5H-pyrrolo[3,4-d]pyrimidin-6(7H)-yl)-3-oxopropyl)-N-methylacetamide], the IC50 was 1 to 10 µM at PI3 Kbeta (PI3 Kb) (setting [2]); above 10 µM on PI3 Kgamma (PI3 Kg) (setting [3]); below 0.1 µM at mTOR (setting [4]); above 10 µM in assay [1] (setting [5]); 1 to 10 µM at PI3K delta (PI3 Kd) (setting [6]); 1 to 10 µM at PI3Kalpha (PI3Ka).

Consider `C[C@H]1COCCN1c1nc(-c2ccc(NC(=O)NC3CC3)cc2)nc2c1CN(C(=O)CCNC(N)=O)C2` [Example 136, (S)-1-cyclopropyl-3-(4-(4-(3-methylmorpholino)-6-(3-ureidopropanoyl)-6,7-dihydro-5H-pyrrolo[3,4-d]pyrimidin-2-yl)phenyl)urea], for which the IC50 at PI3 Kbeta (PI3 Kb) (setting [2]) is 1 to 10 µM; on PI3 Kgamma (PI3 Kg) (setting [3]) it was above 10 µM; on mTOR (setting [4]) it was below 0.1 µM; in assay [1] (setting [5]), above 10 µM; at PI3K delta (PI3 Kd) (setting [6]), 1 to 10 µM; on PI3Kalpha (PI3Ka), 1 to 10 µM.

For the molecule `CCNC(=O)Nc1c(F)cc(-c2nc3c(c(N4CCOC[C@@H]4C)n2)CN(C)C3)cc1F` [Example 139, (S)-1-(2,6-difluoro-4-(6-methyl-4-(3-methylmorpholino)-6,7-dihydro-5H-pyrrolo[3,4-d]pyrimidin-2-yl)phenyl)-3-ethylurea], the IC50 on PI3 Kbeta (PI3 Kb) (setting [7]) was above 10 µM; on PI3 Kgamma (PI3 Kg) (setting [8]) it was above 10 µM; at mTOR (setting [9]), 1 to 10 µM; in assay [1] (setting [10]) it was above 10 µM; at PI3K delta (PI3 Kd) (setting [11]) it was above 10 µM. The PI3Ka result at PI3Kalpha (PI3Ka) is on record as “D (D >10 μM)”.

In the case of `CCNC(=O)Nc1ccc(-c2nc3c(c(N4CCOC[C@@H]4C)n2)CN(C)C3)c(F)c1F` [Example 140, (S)-1-(2,3-difluoro-4-(6-methyl-4-(3-methylmorpholino)-6,7-dihydro-5H-pyrrolo[3,4-d]pyrimidin-2-yl)phenyl)-3-ethylurea], the IC50 at PI3 Kbeta (PI3 Kb) (setting [7]) was above 10 µM; at PI3 Kgamma (PI3 Kg) (setting [8]), above 10 µM; at mTOR (setting [9]), 1 to 10 µM; in assay [1] (setting [10]) it was above 10 µM; on PI3K delta (PI3 Kd) (setting [11]), above 10 µM. Moreover, on PI3Kalpha (PI3Ka), the PI3Ka result was “D (D >10 μM)”.

As for `CCNC(=O)Nc1cc(F)c(-c2nc3c(c(N4CCOC[C@@H]4C)n2)CN(C(=O)OCC)C3)c(F)c1` [Example 142, (S)-ethyl 2-(4-(3-ethylureido)-2,6-difluorophenyl)-4-(3-methylmorpholino)-5H-pyrrolo[3,4-d]pyrimidine-6(7H)-carboxylate], the IC50 (on PI3 Kbeta (PI3 Kb) (setting [7]); on PI3 Kgamma (PI3 Kg) (setting [8]); at mTOR (setting [9]); in assay [1] (setting [10]); at PI3K delta (PI3 Kd) (setting [11])) was above 10 µM in each case. The PI3Ka entry at PI3Kalpha (PI3Ka) is “D (D >10 μM)”.

For `CC(C)(C)OC(=O)N1Cc2nc(-c3ccc(NC(=O)NC4CC4)cc3F)nc(N3CCOCC3)c2C1` [Example 143, tert-Butyl 2-(4-(3-cyclopropylureido)-2-fluorophenyl)-4-morpholino-5H-pyrrolo[3,4-d]pyrimidine-6(7H)-carboxylate], the IC50 on PI3 Kbeta (PI3 Kb) (setting [7]) was above 10 µM; at PI3 Kgamma (PI3 Kg) (setting [8]) it was above 10 µM; at mTOR (setting [9]) it was below 0.1 µM; in assay [1] (setting [10]), above 10 µM; on PI3K delta (PI3 Kd) (setting [11]), above 10 µM. Besides, the PI3Ka result on PI3Kalpha (PI3Ka) was “D (D >10 μM)”.

In the case of `C[C@H]1COCCN1c1nc(-c2ccc(NC(=O)NC3CC3)cc2F)nc2c1CN(C(=O)OC(C)(C)C)C2` [Example 144, (S)-tert-Butyl 2-(4-(3-cyclopropylureido)-2-fluorophenyl)-4-(3-methylmorpholino)-5H-pyrrolo[3,4-d]pyrimidine-6(7H)-carboxylate], the IC50 at PI3 Kbeta (PI3 Kb) (setting [7]) is above 10 µM; on PI3 Kgamma (PI3 Kg) (setting [8]), above 10 µM; on mTOR (setting [9]), 0.1 to 1 µM; in assay [1] (setting [10]), above 10 µM; on PI3K delta (PI3 Kd) (setting [11]), above 10 µM. Also, the PI3Ka result on PI3Kalpha (PI3Ka) is reported as “D (D >10 μM)”.

As to `CCNC(=O)Nc1ccc(-c2nc3c(c(N4CCOCC4)n2)CN(C(=O)OC(C)(C)C)C3)c(F)c1` [Example 145, tert-butyl 2-(4-(3-ethylureido)-2-fluorophenyl)-4-morpholino-5H-pyrrolo[3,4-d]pyrimidine-6(7H)-carboxylate], the IC50 was above 10 µM on PI3 Kbeta (PI3 Kb) (setting [7]); above 10 µM at PI3 Kgamma (PI3 Kg) (setting [8]); 0.1 to 1 µM on mTOR (setting [9]); above 10 µM in assay [1] (setting [10]); above 10 µM at PI3K delta (PI3 Kd) (setting [11]). Moreover, the PI3Ka entry on PI3Kalpha (PI3Ka) is “D (D >10 μM)”.

Source of the values: patent US8785457B2 (Cellzome Limited, priority 2009, dated 2014).
